Reference: article PMC10978157, “Environmental exposure to glyphosate does not inhibit human acetylcholinesterase and butyrylcholinesterase” (Archives of Industrial Hygiene and Toxicology, 2024)

Experiments:
Assay type in all cases: biochemical
[1] = target: T1, human BChE isolated from plasma (Homo sapiens, UniProt P06276); experiment: Ellman assay
T1 construct: native, purified from human plasma, gift from F. Nachon
Excerpt: Ellman assay on human BChE isolated from plasma

[2] = target: T1, human BChE isolated from plasma; experiment: Ellman assay; joint IC50 over all ATCh concentrations; conditions: read-out: Approx. IC50
Excerpt: Ellman assay; joint IC50 over all ATCh concentrations on human BChE isolated from plasma

human recombinant AChE [3] = target: T2, human recombinant AChE (Homo sapiens, UniProt P22303); experiment: as above; conditions: read-out: Approx. IC50
T2 construct: recombinant human AChE, gift from F. Nachon
T2 sequence (P22303 32-614): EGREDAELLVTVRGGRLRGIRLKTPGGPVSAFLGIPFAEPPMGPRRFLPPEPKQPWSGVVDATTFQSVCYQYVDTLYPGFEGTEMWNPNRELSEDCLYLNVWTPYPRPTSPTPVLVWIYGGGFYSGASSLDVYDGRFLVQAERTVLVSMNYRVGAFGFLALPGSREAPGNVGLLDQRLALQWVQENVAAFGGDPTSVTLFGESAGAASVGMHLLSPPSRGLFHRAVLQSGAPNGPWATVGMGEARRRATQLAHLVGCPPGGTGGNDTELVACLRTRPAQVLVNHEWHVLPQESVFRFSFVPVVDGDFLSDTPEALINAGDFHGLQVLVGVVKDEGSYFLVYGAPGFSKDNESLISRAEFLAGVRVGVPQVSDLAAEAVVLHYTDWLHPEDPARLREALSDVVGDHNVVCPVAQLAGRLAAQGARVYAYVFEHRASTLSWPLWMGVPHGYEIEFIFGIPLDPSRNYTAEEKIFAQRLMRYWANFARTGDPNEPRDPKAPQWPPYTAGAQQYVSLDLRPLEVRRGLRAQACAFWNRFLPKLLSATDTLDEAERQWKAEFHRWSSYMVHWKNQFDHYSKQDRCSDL
Excerpt: Ellman assay; joint IC50 over all ATCh concentrations on human recombinant AChE

human recombinant AChE [4] = target: T2, human recombinant AChE; experiment: Ellman assay
Excerpt: Ellman assay on human recombinant AChE

T1 sequence (P06276 29-602): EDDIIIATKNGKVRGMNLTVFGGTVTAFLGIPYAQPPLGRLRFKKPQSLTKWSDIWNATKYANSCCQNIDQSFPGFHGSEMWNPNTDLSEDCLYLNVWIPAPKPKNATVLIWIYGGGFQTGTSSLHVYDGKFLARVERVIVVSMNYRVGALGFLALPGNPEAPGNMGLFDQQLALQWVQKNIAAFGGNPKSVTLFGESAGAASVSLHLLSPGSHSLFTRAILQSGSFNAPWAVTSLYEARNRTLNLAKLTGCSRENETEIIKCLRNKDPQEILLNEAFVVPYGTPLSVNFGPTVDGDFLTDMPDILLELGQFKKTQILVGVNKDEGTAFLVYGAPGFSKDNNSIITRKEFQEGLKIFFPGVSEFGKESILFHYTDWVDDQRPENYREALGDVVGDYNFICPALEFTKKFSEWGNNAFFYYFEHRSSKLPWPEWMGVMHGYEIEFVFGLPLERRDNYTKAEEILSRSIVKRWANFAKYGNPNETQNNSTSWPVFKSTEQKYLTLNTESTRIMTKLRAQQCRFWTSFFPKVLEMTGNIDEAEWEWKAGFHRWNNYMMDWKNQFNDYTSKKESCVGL

O=C(O)CNCP(=O)(O)O [glyphosate, N-(phosphonomethyl)glycine]
Ki [1]: 19.3 ± 1.8 mM
IC50 [2]: ~20 mM
IC50 (human recombinant AChE [3]): ~25.1 mM
Ki (human recombinant AChE [4]): 28.4 ± 2.7 mM
